Measurements published in ChEMBL document CHEMBL4304783, “Discovery of a Novel Selective Dual Peroxisome Proliferator-Activated Receptor α/δ Agonist for the Treatment of Primary Biliary Cirrhosis” (ACS Med Chem Lett, 2019).

Assay: Cmax in C57BL/6J mouse at 10 mg/kg, po measured upto 24 hrs by LC-MS/MS analysis
Format: ADME, organism-based
Set-up: dose 10 mg/kg, route oral
Settings: in vivo

Cc1cc(Cc2cc(-c3ccc(Br)cc3)on2)cc(C)c1OC(C)(C)C(=O)O
Cmax: 52 µM
